Results from patent US4578489A (priority 1982, dated 1986).
Read-outs that look alike come from different tables or passages of the source.

Legend:
Format in all cases: cell-based
Serratia marcencens = experiment: Minimum inhibitory concentration against bacteria, strain D; conditions: 24 hours at 30° C.; tested at 100 and 300 mg/liter
Experimental: (§1) Overnight cultures, grown in Caso peptone bouillon (Merck) of the various strains of bacteria: (A) Proteus vulgaris, (B) Pseudomonas aeruginosa, (C) Enterobacter aerogenes, (D) Serratia marcencens, (E) Alcaligenes denitrificans and (F) Bacillus subtilis are each diluted in a ratio of 1/1000 in saline solution. Sufficient of the suspensions is put into Caso peptone bouillon to dilute the bacteria again in the ratio of 1/1000. Each of the compounds listed in Table 1 is then added in amounts of 100 and 300 mg/liter. After being incubated for 24 hours at 30° C. in a shaking waterbath, the turbidity of the samples is evaluated.

[1] = test system: Cladosporium cladosporioides; experiment: Minimum inhibitory concentration against fungi, agar incorporation test, strain O; conditions: malt extract/agar
Experimental: (§2) The invention is carried out using the known agar incorporation test in the following fungi:
(O) Cladosporium cladosporioides
(§3) in a malt extract/agar (Merck). Inhibition is effected by adding sufficient of each of the various compounds to give final concentrations in the agar of 2, 5, 10, 50 and 100 mg/liter. The concentrations (mg/liters) required to inhibit the growth of the fungi (starting from traces of fungi added dropwise) are illustrated in Table 3.

Enterobacter aerogenes = experiment: Minimum inhibitory concentration against bacteria, strain C; conditions: 24 hours at 30° C.; tested at 100 and 300 mg/liter
Experimental: as §1

Aureobasidium pullulans = experiment: Minimum inhibitory concentration against fungi, agar incorporation test, strain R; conditions: malt extract/agar
Experimental: as §2
(R) Aureobasidium pullulans
as §3

[2] = test system: Alcaligenes denitrificans; experiment: Minimum inhibitory concentration against bacteria, strain E; conditions: 24 hours at 30° C.; tested at 100 and 300 mg/liter
Experimental: as §1

Proteus vulgaris = experiment: Minimum inhibitory concentration against bacteria, strain A; conditions: 24 hours at 30° C.; tested at 100 and 300 mg/liter
Experimental: as §1

Chaetomium globosum = experiment: Minimum inhibitory concentration against fungi, agar incorporation test, strain S; conditions: malt extract/agar
Experimental: as §2, §3

Bacillus subtilis = experiment: Minimum inhibitory concentration against bacteria, strain F; conditions: 24 hours at 30° C.; tested at 100 and 300 mg/liter
Experimental: as §1

Aspergillus phoenicis = experiment: Minimum inhibitory concentration against fungi, agar incorporation test, strain L; conditions: malt extract/agar
Experimental: as §2
(L) Aspergillus phoenicis
as §3

Aspergillus niger = experiment: Minimum inhibitory concentration against fungi, agar incorporation test, strain K; conditions: malt extract/agar
Experimental: as §2, §3

Candida albicans = experiment: Minimum inhibitory concentration against fungi, agar incorporation test, strain P; conditions: malt extract/agar
Experimental: as §2, §3

Penicillium funiculosum = experiment: Minimum inhibitory concentration against fungi, agar incorporation test, strain M; conditions: malt extract/agar
Experimental: as §2
(M) Penicillium funiculosum
as §3

Endomyces geotrichum = experiment: Minimum inhibitory concentration against fungi, agar incorporation test, strain Q; conditions: malt extract/agar
Experimental: as §2, §3

Alternaria alternata = experiment: Minimum inhibitory concentration against fungi, agar incorporation test, strain N; conditions: malt extract/agar
Experimental: as §2, §3

Pseudomonas aeruginosa = experiment: Minimum inhibitory concentration against bacteria, strain B; conditions: 24 hours at 30° C.; tested at 100 and 300 mg/liter
Experimental: as §1

Chlorella vulgaris = experiment: Action against algae: Chlorella vulgaris; design: key: --: no growth on the agar, 3 ppm have destroyed the algae in 6 hours; conditions: 3 mg/liter; for Growth on the agar (algae-destroying action): 6 hours exposure, 14 days incubation; for Growth in the medium (growth inhibition): 14 days
Experimental: Cultures of Chlorella vulgaris which had been grown for 14 days in algae nutrient media are diluted in the ratio 1/200 in the algae nutrient medium. Each of the compounds listed in Table 1 is then added in such an amount as to give a final concentration of 3 mg/liter. After incubating for 6 hours, 10 μl of each culture are withdrawn and added dropwise to algae/agar in order to determine the destructive action. After the cultures have incubated for 14 days under illumination (14 hours of light and 10 hours of darkness, alternately), the growth in the algae medium (determination of growth inhibition) and on the algae/agar (determination of algae-destroying action) is assessed visually.

[3] = test system: mixed culture of bacteria; design: key: +: growth, no destruction; (+): growth less than that of control (>10 colonies), slight destruction; (-): slight growth (1-10 colonies); -: no growth, destruction
[4] = 5 mg/l, culture diluted 1/1000 in Tyrode
[5] = 5 mg/l, culture diluted 1/10000 in Tyrode
[6] = 10 mg/l, culture diluted 1/1000 in Tyrode
[7] = 10 mg/l, culture diluted 1/10000 in Tyrode
[8] = 30 mg/l, culture diluted 1/1000 in Tyrode
[9] = 30 mg/l, culture diluted 1/10000 in Tyrode
[10] = 60 mg/l, culture diluted 1/1000 in Tyrode
[11] = 60 mg/l, culture diluted 1/10000 in Tyrode
[12] = 100 mg/l, culture diluted 1/1000 in Tyrode
[13] = 100 mg/l, culture diluted 1/10000 in Tyrode

Compound | MIC against bacteria, strain D (Serratia marcencens) [µg/mL] | MIC against fungi, strain O [1] [µg/mL] | MIC against bacteria, strain C (Enterobacter aerogenes) [µg/mL] | MIC against fungi, strain R (Aureobasidium pullulans) [µg/mL] | MIC against bacteria, strain E [2] [µg/mL] | MIC against bacteria, strain A (Proteus vulgaris) [µg/mL] | MIC against fungi, strain S (Chaetomium globosum) [µg/mL] | MIC against bacteria, strain F (Bacillus subtilis) [µg/mL] | MIC against fungi, strain L (Aspergillus phoenicis) [µg/mL] | MIC against fungi, strain K (Aspergillus niger) [µg/mL] | MIC against fungi, strain P (Candida albicans) [µg/mL] | MIC against fungi, strain M (Penicillium funiculosum) [µg/mL] | MIC against fungi, strain Q (Endomyces geotrichum) [µg/mL] | MIC against fungi, strain N (Alternaria alternata) [µg/mL] | MIC against bacteria, strain B (Pseudomonas aeruginosa) [µg/mL] | Growth on the agar (algae-destroying action) (Chlorella vulgaris) | Growth in the medium (growth inhibition) (Chlorella vulgaris) | Growth (destruction of a mixed culture of bacteria) [3, 4] | Growth (destruction of a mixed culture of bacteria) [3, 5] | Growth (destruction of a mixed culture of bacteria) [3, 6] | also measured
(CH3)2 N(OH)C16 H37 / Tributyldichloro [Example 15] | > 300 | 2 | > 300 | 2 | 300 | 100 | 2 | 100 | 2 | 2 | 5 | 5 | 10 | 2 | 100 | -- | -- |  |  |  | 
CCCCCCCCCCCC[N+](C)(C)O.CCC[CH2][Sn-]([Cl])([Cl])([CH2]CCC)[CH2]CCC [Example 14, (CH3)2 N(OH)C12 H25 / Tributyldichloro] | 300 | 2 | > 300 | 2 | 300 | 100 | 2 | 100 | 2 | 2 | 5 | 5 | 10 | 2 | 100 | -- | -- |  |  |  | 
C14 H29 (CH3)2NCH2CHOHCH2 OH / Tributyldichloro [Example 21] | 100 | ≤ 5 | 100 | ≤ 5 | 100 | 100 | ≤ 5 | 100 | ≤ 5 | ≤ 5 | ≤ 5 | ≤ 5 | ≤ 5 | ≤ 5 | 100 | -- | -- |  |  |  | 
CCCCCCCCCCCCCCCCCC[N+](C)(C)C.CCC[CH2][Sn-]([Cl])([Cl])([CH2]CCC)[CH2]CCC [Example 18, (CH3)3 NC18 H37 / Tributyldichloro] |  | 2 |  | 2 |  |  | 2 |  | 2 | 2 | 5 | 5 | 10 | 2 |  | -- | -- | + | (+) (growth less than that of control (>10 colonies), slight destruction) | + | Growth (destruction of a mixed culture of bacteria) [3, 7]: (-) (slight growth (1-10 colonies)); Growth (destruction of a mixed culture of bacteria) [3, 8]: (+) (growth less than that of control (>10 colonies), slight destruction); Growth (destruction of a mixed culture of bacteria) [3, 9]: -; Growth (destruction of a mixed culture of bacteria) [3, 10]: (+) (growth less than that of control (>10 colonies), slight destruction); Growth (destruction of a mixed culture of bacteria) [3, 11]: -; Growth (destruction of a mixed culture of bacteria) [3, 12]: (-) (slight growth (1-10 colonies)); Growth (destruction of a mixed culture of bacteria) [3, 13]: -
CCCCCCCCCCCCCCCC[N+](C)(C)C.CCC[CH2][Sn-]([Cl])([Cl])([CH2]CCC)[CH2]CCC [Example 17, (CH3)3 NC16 H33 / Tributyldichloro] |  | 2 |  | 2 |  |  | 2 |  | 2 | 2 | 5 | 5 | 10 | 2 |  | -- | -- | + | (+) (growth less than that of control (>10 colonies), slight destruction) | + | Growth (destruction of a mixed culture of bacteria) [3, 7]: (+) (growth less than that of control (>10 colonies), slight destruction); Growth (destruction of a mixed culture of bacteria) [3, 8]: (+) (growth less than that of control (>10 colonies), slight destruction); Growth (destruction of a mixed culture of bacteria) [3, 9]: -; Growth (destruction of a mixed culture of bacteria) [3, 10]: -; Growth (destruction of a mixed culture of bacteria) [3, 11]: -; Growth (destruction of a mixed culture of bacteria) [3, 12]: -; Growth (destruction of a mixed culture of bacteria) [3, 13]: -
